Measurements reported in ChEMBL document CHEMBL3638931, “Histone deacetylase inhibitors, process for preparation and uses thereof” (2014).

Target: T1, Protein deacetylase HDAC6 (Homo sapiens, UniProt Q9UBN7)
T1 sequence (Q9UBN7 whole entry): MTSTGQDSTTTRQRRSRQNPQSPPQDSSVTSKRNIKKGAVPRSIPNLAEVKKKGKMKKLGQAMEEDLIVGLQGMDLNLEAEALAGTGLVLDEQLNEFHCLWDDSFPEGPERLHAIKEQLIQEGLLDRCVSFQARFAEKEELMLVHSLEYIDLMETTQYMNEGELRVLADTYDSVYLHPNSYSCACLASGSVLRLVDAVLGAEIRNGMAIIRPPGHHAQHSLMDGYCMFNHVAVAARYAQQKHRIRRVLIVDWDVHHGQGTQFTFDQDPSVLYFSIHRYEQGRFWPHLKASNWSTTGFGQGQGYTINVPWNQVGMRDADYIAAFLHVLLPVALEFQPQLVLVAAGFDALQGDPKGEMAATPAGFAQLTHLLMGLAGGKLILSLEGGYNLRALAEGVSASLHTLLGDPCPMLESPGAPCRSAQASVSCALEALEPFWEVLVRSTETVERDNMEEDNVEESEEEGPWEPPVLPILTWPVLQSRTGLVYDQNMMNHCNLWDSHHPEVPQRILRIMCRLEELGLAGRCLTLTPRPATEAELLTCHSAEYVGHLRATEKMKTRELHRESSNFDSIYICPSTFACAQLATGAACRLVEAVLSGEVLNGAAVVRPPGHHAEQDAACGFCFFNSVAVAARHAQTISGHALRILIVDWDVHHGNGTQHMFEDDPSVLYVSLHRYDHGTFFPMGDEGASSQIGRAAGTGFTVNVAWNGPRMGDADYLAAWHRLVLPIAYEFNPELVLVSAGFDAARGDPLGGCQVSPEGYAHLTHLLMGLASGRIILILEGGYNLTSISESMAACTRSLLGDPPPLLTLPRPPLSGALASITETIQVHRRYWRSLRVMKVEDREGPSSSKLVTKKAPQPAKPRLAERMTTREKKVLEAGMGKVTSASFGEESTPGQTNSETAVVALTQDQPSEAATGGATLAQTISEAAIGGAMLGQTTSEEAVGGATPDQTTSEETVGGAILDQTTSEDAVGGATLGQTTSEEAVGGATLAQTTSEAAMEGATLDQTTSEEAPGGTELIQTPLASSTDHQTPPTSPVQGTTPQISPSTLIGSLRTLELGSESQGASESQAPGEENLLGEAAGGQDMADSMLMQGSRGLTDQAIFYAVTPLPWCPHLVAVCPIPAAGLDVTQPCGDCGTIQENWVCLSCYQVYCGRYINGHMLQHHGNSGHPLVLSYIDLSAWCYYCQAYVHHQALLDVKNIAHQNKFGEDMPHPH
Assay: BIOMOL Fluorescent-Based HDAC Assay: The BIOMOL fluorescent-based HDAC activity assay has been applied in In vitro HDACi assay for determination of IC50 values of the compounds of this invention. The assay has been carried out in white 96 well formats according to the BIOMOL's method. In order to optimize the experiment conditions and optinal, the exact concentration range of the Deacetylated Standard (biomol, KI-142) that will vary depending on the flurimeter model, the gain setting and the exact excitation and emission wavelengths used. We recommend diluting some of the standard to a relatively low concentration with Assay Buffer (an appropriate series of Deacetylated Standard dilutions from 20 uM to 0.3125 uM), and Assay Buffer as a time zero to a set of wells on the microtiter plate. Experimental to samples (five dilute groups: 100 uM, 20 uM, 4 uM, 0.8 uM, 0.16 uM) should be compared to a time zero.

SMILES: CCN(CC)CCSc1ccc(/C=C/C(=O)NO)cc1NS(=O)(=O)c1ccc(C)cc1
- IC50: 0.247 µM

SMILES: CCN(CC)CCSc1ccc(/C=C/C(=O)NO)cc1NC(=O)C(Cl)Cl
- IC50: 0.313 µM
